How the values were obtained:
[1] = test system: Tyrosine-protein kinase ABL1 (Homo sapiens), P00519 [Y253F]; settings: Compound concentration 100.0 nM
[2] = molecular target: RAC-alpha serine/threonine-protein kinase (Homo sapiens) (UniProt P31749); settings: Compound concentration 100.0 nM
[3] = molecular target: RAC-beta serine/threonine-protein kinase (Homo sapiens) (UniProt P31751); settings: Compound concentration 100.0 nM
[4] = molecular target: Aurora kinase B (Homo sapiens) (UniProt Q96GD4); settings: Compound concentration 100.0 nM
[5] = molecular target: Calcium/calmodulin-dependent protein kinase type 1B (Homo sapiens) (UniProt Q6P2M8); settings: Compound concentration 100.0 nM
[6] = molecular target: Calcium/calmodulin-dependent protein kinase kinase 1 (Homo sapiens) (UniProt Q8N5S9); settings: Compound concentration 100.0 nM
[7] = molecular target: Cyclin-dependent kinase 13 (Homo sapiens) (UniProt Q14004); settings: Compound concentration 100.0 nM
[8] = molecular target: Cyclin-dependent kinase 4 (Homo sapiens) (UniProt P11802); settings: Compound concentration 100.0 nM
[9] = molecular target: Cyclin-dependent kinase 7 (Homo sapiens) (UniProt P50613); settings: Compound concentration 100.0 nM
[10] = molecular target: Dual specificity protein kinase CLK1 (Homo sapiens) (UniProt P49759); settings: Compound concentration 100.0 nM
[11] = molecular target: Dual specificity protein kinase CLK4 (Homo sapiens) (UniProt Q9HAZ1); settings: Compound concentration 100.0 nM
[12] = molecular target: Casein kinase I isoform gamma-1 (Homo sapiens) (UniProt Q9HCP0); settings: Compound concentration 100.0 nM
[13] = molecular target: Serine/threonine-protein kinase DCLK3 (Homo sapiens) (UniProt Q9C098); settings: Compound concentration 100.0 nM
[14] = molecular target: Discoidin domain-containing receptor 2 (Homo sapiens) (UniProt Q16832); settings: Compound concentration 100.0 nM
[15] = test system: Epidermal growth factor receptor (Homo sapiens), P00533 [UNDEFINED MUTATION]; settings: Compound concentration 100.0 nM
[16] = test system: Epidermal growth factor receptor (Homo sapiens), P00533 [UNDEFINED MUTATION]; settings: Compound concentration 100.0 nM; remark: listed apart in the source
[17] = molecular target: Ephrin type-B receptor 4 (Homo sapiens) (UniProt P54760); settings: Compound concentration 100.0 nM
[18] = molecular target: Vascular endothelial growth factor receptor 1 (Homo sapiens) (UniProt P17948); settings: Compound concentration 100.0 nM
[19] = test system: Leucine-rich repeat serine/threonine-protein kinase 2 (Homo sapiens), Q5S007 [G2019S]; settings: Compound concentration 100.0 nM
[20] = molecular target: Mitogen-activated protein kinase kinase kinase 15 (Homo sapiens) (UniProt Q6ZN16); settings: Compound concentration 100.0 nM
[21] = molecular target: Maternal embryonic leucine zipper kinase (Homo sapiens) (UniProt Q14680); settings: Compound concentration 100.0 nM
[22] = molecular target: Mitogen-activated protein kinase kinase kinase 9 (Homo sapiens) (UniProt P80192); settings: Compound concentration 100.0 nM
[23] = molecular target: Serine/threonine-protein kinase 4 (Homo sapiens) (UniProt Q13043); settings: Compound concentration 100.0 nM
[24] = molecular target: Macrophage-stimulating protein receptor (Homo sapiens) (UniProt Q04912); settings: Compound concentration 100.0 nM
[25] = molecular target: Myosin light chain kinase 2, skeletal/cardiac muscle (Homo sapiens) (UniProt Q9H1R3); settings: Compound concentration 100.0 nM
[26] = molecular target: Serine/threonine-protein kinase 38-like (Homo sapiens) (UniProt Q9Y2H1); settings: Compound concentration 100.0 nM
[27] = molecular target: Serine/threonine-protein kinase NLK (Homo sapiens) (UniProt Q9UBE8); settings: Compound concentration 100.0 nM
[28] = molecular target: Serine/threonine-protein kinase PAK 4 (Homo sapiens) (UniProt O96013); settings: Compound concentration 100.0 nM
[29] = molecular target: Cyclin-dependent kinase 18 (Homo sapiens) (UniProt Q07002); settings: Compound concentration 100.0 nM
[30] = molecular target: 1-phosphatidylinositol 3-phosphate 5-kinase (Homo sapiens) (UniProt Q9Y2I7); settings: Compound concentration 100.0 nM
[31] = molecular target: Serine/threonine-protein kinase D2 (Homo sapiens) (UniProt Q9BZL6); settings: Compound concentration 100.0 nM
[32] = molecular target: Serine/threonine-protein kinase RIO1 (Homo sapiens) (UniProt Q9BRS2); settings: Compound concentration 100.0 nM
[33] = molecular target: Rho-associated protein kinase 1 (Homo sapiens) (UniProt Q13464); settings: Compound concentration 100.0 nM
[34] = molecular target: Rho-associated protein kinase 2 (Homo sapiens) (UniProt O75116); settings: Compound concentration 100.0 nM
[35] = molecular target: Serine/threonine-protein kinase SBK1 (Homo sapiens) (UniProt Q52WX2); settings: Compound concentration 100.0 nM
[36] = molecular target: Serine/threonine-protein kinase Sgk2 (Homo sapiens) (UniProt Q9HBY8); settings: Compound concentration 100.0 nM
[37] = molecular target: Serine/threonine-protein kinase SIK1 (Homo sapiens) (UniProt P57059); settings: Compound concentration 100.0 nM
[38] = molecular target: Serine/threonine-protein kinase 16 (Homo sapiens) (UniProt O75716); settings: Compound concentration 100.0 nM
[39] = molecular target: Serine/threonine-protein kinase 36 (Homo sapiens) (UniProt Q9NRP7); settings: Compound concentration 100.0 nM
[40] = molecular target: Activated CDC42 kinase 1 (Homo sapiens) (UniProt Q07912); settings: Compound concentration 100.0 nM
[41] = molecular target: NT-3 growth factor receptor (Homo sapiens, UniProt Q16288); settings: Compound concentration 100.0 nM
[42] = molecular target: Testis-specific serine/threonine-protein kinase 3 (Homo sapiens) (UniProt Q96PN8); settings: Compound concentration 100.0 nM
[43] = molecular target: Vascular endothelial growth factor receptor 2 (Homo sapiens) (UniProt P35968); settings: Compound concentration 100.0 nM
[44] = molecular target: Alpha-2A adrenergic receptor (Homo sapiens) (UniProt P08913); settings: Compound concentration 10.0 uM
[45] = molecular target: Alpha-2C adrenergic receptor (Homo sapiens) (UniProt P18825); settings: Compound concentration 10.0 uM

Chain of Epidermal growth factor receptor (Homo sapiens), P00533 [UNDEFINED MUTATION] (P00533 whole entry, looked up, change not shown): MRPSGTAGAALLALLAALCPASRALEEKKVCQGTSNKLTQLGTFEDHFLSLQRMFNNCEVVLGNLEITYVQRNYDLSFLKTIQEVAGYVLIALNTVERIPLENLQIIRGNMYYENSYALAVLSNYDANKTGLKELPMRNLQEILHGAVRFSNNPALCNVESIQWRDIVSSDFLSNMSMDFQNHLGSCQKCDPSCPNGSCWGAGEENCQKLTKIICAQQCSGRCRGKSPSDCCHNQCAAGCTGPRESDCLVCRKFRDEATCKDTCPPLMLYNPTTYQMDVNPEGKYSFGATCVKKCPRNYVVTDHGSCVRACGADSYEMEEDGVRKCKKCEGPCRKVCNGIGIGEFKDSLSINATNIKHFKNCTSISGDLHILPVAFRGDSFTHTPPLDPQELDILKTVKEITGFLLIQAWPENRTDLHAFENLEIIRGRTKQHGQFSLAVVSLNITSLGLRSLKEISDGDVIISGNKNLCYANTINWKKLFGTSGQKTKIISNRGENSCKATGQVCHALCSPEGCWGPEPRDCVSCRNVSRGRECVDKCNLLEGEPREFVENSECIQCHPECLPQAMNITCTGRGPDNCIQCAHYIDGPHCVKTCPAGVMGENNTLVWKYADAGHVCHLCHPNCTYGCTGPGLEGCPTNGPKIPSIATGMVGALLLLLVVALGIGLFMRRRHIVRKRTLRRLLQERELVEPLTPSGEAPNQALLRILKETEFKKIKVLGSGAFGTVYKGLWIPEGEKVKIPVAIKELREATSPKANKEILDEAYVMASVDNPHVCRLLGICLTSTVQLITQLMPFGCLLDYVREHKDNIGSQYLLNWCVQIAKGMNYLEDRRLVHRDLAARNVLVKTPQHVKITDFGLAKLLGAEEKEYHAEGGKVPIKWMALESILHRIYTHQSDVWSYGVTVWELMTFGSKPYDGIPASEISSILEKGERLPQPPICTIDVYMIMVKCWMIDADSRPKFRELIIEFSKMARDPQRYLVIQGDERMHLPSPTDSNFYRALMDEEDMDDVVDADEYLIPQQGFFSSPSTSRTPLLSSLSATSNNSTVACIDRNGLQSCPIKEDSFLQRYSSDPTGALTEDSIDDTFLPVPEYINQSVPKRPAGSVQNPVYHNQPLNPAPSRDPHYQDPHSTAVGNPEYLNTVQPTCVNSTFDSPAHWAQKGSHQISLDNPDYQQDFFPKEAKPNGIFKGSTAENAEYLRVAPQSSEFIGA
Chain of Serine/threonine-protein kinase SIK1 (Homo sapiens) (P57059 whole entry): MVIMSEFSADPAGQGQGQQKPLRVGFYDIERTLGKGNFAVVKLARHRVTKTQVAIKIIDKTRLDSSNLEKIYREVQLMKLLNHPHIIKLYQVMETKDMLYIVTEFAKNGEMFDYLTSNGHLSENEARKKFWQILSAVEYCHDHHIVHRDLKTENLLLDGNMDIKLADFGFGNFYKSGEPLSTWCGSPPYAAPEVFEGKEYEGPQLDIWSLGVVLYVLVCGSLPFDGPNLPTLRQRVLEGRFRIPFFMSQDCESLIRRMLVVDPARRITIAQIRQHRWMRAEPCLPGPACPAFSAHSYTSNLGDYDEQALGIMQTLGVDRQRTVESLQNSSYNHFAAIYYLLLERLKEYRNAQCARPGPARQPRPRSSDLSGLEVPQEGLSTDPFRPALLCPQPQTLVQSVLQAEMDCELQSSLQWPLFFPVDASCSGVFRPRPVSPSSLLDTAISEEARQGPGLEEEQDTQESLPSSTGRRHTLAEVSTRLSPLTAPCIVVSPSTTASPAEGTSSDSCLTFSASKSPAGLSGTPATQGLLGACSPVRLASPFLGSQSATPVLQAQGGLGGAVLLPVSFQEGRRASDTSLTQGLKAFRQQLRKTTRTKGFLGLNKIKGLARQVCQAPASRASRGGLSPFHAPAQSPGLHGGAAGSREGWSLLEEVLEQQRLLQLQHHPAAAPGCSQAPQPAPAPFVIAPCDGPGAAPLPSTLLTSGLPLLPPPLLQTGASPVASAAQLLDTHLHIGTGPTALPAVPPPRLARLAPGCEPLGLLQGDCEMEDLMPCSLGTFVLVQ
Chain of Testis-specific serine/threonine-protein kinase 3 (Homo sapiens) (Q96PN8 whole entry): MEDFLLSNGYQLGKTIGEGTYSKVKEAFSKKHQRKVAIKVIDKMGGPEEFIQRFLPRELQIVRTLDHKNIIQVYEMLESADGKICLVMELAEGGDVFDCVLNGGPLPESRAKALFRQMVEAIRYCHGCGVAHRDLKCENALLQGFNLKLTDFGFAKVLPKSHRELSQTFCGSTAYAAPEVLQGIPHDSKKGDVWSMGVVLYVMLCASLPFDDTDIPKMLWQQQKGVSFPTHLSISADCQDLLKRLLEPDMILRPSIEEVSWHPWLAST
Chain of Cyclin-dependent kinase 18 (Homo sapiens) (Q07002 whole entry): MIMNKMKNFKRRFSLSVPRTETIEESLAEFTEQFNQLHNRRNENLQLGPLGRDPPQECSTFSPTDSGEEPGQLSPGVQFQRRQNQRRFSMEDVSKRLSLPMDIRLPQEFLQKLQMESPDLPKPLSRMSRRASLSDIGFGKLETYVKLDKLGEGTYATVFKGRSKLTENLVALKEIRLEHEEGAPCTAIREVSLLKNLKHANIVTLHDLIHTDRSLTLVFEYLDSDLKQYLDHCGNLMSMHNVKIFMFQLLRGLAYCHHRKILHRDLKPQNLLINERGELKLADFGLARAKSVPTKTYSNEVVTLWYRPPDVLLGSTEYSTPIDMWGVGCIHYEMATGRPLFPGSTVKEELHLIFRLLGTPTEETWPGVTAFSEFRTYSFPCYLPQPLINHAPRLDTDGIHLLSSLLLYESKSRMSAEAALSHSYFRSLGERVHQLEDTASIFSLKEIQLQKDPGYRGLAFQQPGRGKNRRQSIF
Chain of Dual specificity protein kinase CLK4 (Homo sapiens) (Q9HAZ1 whole entry, looked up, canonical isoform): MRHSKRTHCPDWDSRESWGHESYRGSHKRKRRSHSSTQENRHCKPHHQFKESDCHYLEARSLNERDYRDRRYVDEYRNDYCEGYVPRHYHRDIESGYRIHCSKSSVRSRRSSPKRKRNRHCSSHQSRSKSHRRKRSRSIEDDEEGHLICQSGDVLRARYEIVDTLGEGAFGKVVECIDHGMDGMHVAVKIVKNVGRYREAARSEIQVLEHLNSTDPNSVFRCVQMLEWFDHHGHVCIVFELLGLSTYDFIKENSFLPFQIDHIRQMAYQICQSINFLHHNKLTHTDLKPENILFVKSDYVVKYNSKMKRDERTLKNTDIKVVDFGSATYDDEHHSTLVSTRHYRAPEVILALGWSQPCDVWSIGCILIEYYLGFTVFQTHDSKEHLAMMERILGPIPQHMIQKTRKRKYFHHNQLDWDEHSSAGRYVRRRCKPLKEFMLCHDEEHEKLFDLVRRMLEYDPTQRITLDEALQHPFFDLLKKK
Chain of Serine/threonine-protein kinase DCLK3 (Homo sapiens) (Q9C098 whole entry, the tested form may be a part): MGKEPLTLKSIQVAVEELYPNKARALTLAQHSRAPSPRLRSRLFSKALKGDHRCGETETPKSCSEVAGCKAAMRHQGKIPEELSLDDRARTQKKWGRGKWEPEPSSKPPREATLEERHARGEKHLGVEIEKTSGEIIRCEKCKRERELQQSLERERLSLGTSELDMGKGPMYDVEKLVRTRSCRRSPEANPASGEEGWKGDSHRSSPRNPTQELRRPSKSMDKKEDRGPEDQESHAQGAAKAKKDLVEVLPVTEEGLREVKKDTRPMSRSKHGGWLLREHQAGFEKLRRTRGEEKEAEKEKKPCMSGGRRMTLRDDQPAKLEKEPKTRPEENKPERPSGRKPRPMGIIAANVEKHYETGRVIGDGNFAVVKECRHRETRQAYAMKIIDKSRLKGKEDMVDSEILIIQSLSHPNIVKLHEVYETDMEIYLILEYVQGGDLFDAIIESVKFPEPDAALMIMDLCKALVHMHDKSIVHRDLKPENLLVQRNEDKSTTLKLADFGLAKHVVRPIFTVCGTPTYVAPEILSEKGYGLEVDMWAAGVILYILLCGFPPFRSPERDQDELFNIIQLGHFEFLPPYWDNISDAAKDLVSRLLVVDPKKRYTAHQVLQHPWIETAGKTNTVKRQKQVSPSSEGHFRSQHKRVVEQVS
Chain of Cyclin-dependent kinase 4 (Homo sapiens) (P11802 whole entry): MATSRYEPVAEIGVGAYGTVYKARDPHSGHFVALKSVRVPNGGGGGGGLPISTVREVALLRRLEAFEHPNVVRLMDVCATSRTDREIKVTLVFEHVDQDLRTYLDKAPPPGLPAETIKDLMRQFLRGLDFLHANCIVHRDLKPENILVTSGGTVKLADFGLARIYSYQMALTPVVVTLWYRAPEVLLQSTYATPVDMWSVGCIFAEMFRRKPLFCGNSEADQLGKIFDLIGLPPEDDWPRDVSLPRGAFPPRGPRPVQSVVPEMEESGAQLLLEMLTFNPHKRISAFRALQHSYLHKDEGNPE
Chain of Serine/threonine-protein kinase PAK 4 (Homo sapiens) (O96013 whole entry, looked up): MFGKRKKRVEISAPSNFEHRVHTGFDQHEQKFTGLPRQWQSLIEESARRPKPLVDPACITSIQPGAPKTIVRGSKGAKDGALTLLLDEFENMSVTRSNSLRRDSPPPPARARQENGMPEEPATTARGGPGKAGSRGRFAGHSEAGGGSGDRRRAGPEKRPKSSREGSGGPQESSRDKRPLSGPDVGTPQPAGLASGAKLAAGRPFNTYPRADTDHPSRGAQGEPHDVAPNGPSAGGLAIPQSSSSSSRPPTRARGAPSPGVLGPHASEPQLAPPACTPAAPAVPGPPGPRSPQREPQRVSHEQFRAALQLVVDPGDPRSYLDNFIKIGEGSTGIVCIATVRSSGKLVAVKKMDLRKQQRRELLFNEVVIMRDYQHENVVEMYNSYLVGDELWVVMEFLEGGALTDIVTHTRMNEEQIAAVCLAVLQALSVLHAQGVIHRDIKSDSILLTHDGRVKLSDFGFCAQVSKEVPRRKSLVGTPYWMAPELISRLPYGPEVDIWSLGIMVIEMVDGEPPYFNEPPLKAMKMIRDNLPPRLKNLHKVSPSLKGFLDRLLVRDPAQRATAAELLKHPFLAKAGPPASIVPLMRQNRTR

Cc1ccc(-c2cnc([C@@]3(O)CC[C@H](C(=O)O)C(C)(C)C3)s2)cc1Nc1cccc(C(F)(F)F)n1 [MRL-SYKi-NC]
inactive: residual activity [1] 81.9% | residual activity [2] 92.3% | residual activity [3] 100% | residual activity [4] 93.1% | residual activity [5] 95.9% | residual activity [6] 84.1% | residual activity [8] 100% | residual activity [9] 86.2% | residual activity [10] 83.8% | residual activity [11] 65.2% | residual activity [12] 91.8% | residual activity [13] 76.2% | residual activity [14] 100% | residual activity [15] 100% | residual activity [16] 100% | residual activity [17] 100% | residual activity [18] 97.7% | residual activity [19] 64.9% | residual activity [20] 85% | residual activity [21] 100% | residual activity [22] 100% | residual activity [23] 69.1% | residual activity [24] 100% | residual activity [25] 90.9% | residual activity [26] 100% | residual activity [27] 100% | residual activity [28] 100% | residual activity [29] 100% | residual activity [30] 89.4% | residual activity [31] 100% | residual activity [32] 100% | residual activity [33] 100% | residual activity [34] 85.3% | residual activity [35] 51.1% | residual activity [36] 57.3% | residual activity [37] 100% | residual activity [38] 78% | residual activity [39] 95.5% | residual activity [40] 100% | residual activity [41] 80% | residual activity [42] 100% | residual activity [43] 100% | inhibition [44] 34.5% | inhibition [45] 11.8%
active: residual activity [7] 45.7%

Cc1cc(Nc2nccc(C)n2)cc(-c2cnc([C@@]3(O)CC[C@H](C(=O)O)C(C)(C)C3)s2)c1 [MRL-SYKi]
inactive: residual activity [1] 100% | residual activity [2] 100% | residual activity [3] 100% | residual activity [4] 89% | residual activity [5] 78.1% | residual activity [6] 66.6% | residual activity [7] 89.5% | residual activity [8] 85.4% | residual activity [9] 100% | residual activity [10] 97.9% | residual activity [11] 90.9% | residual activity [12] 100% | residual activity [13] 97.3% | residual activity [14] 100% | residual activity [15] 65% | residual activity [16] 100% | residual activity [17] 100% | residual activity [18] 100% | residual activity [19] 92.3% | residual activity [20] 80.5% | residual activity [21] 88% | residual activity [22] 90.4% | residual activity [23] 100% | residual activity [24] 65.9% | residual activity [25] 100% | residual activity [26] 100% | residual activity [27] 73% | residual activity [28] 89.8% | residual activity [29] 100% | residual activity [30] 98.7% | residual activity [31] 96.1% | residual activity [32] 100% | residual activity [33] 70.7% | residual activity [34] 85.9% | residual activity [35] 100% | residual activity [36] 100% | residual activity [37] 94.3% | residual activity [38] 100% | residual activity [39] 94.5% | residual activity [40] 100% | residual activity [41] 82.6% | residual activity [42] 100% | residual activity [43] 100% | inhibition [44] -2.14% | inhibition [45] -3.94%

— ChEMBL document CHEMBL4507285, “Data for DCP probe MRL-SYKi” (2021)
